For this experiment, the system named is lymphocytic leukemia P388. The experiment can be described thus: Lymphocytic Leukemia P388 Test. Type of experiment: in vivo, BDF1 mice. The conditions noted are these: for Median Survival: BDF1 mice; for T/C × 100 (%): ratio of survival time treated/control; for response vs control in vivo at 0.75 mg/kg / response vs control in vivo at 1.5 mg/kg / response vs control in vivo at 3 mg/kg: Mus musculus, P388, ip, read-out: T/C × 100 (%). The method, then: The animals used were BDF1 mice, all of one sex, weighing a minimum of 18 g and all within a 3 g weight range. There were 5 or 6 mice per test group. The tumor transplant was by intraperitoneal injection of 0.5 ml of dilute ascitic fluid containing 10^6 cells of lymphocytic leukemia P388. The test compounds were administered intraperitoneally on days 1, 5 and 9 (relative to tumor inocu-lation) at various doses. The animals were weighed and survivors recorded on a regular basis for 60 days. The median survival time and the ratio of survival time for treated (T)/control (C) animals were calculated.

The mark [1] stands for this setting: dose 0.75 mg/kg intraperitoneally on days 1, 5 and 9.
[2] abbreviates: dose 1.5 mg/kg intraperitoneally on days 1, 5 and 9.
Setting [3] is: dose 3 mg/kg intraperitoneally on days 1, 5 and 9.

12 molecules from US4732970A, “Antitumor amino acid and peptide derivatives of 1,4-bis(aminoalkyl and hydroxy-aminoalkyl)amino)-5,8-dihydroxyanthraquinones” (priority 1986, dated 1988) can be followed below.

*1 amine or outer side, *2 acyl side, *3 side chain or, on linkers, in order; H or OH if unused. Where a SMILES comes first, the peptide text is derived from it. Bridges are numbered along the chain shown (N, C = ends). Roman numbers before positions name the chains, in order. X1 = O=C1c2c(O)ccc(O)c2C(=O)c2c(NCCN[*:2])ccc(NCCN[*:1])c21

With `O=C(O)C(F)(F)F.O=C(O)C(F)(F)F.O=C(O)CC[C@H](NC(=O)OCc1ccccc1)C(=O)NCCNc1ccc(NCCNC(=O)[C@H](CCC(=O)O)NC(=O)OCc2ccccc2)c2c1C(=O)c1c(O)ccc(O)c1C2=O` (relative stereo) [Example 48, [S-(R*,R*)]-5,5'-[(9,10-Dihydro-5,8-dihydroxy-9,10-dioxo-1,4-anthracenediyl)bis(imino-2,1-ethanediylimino)]bis[5-oxo-4-[[(phenylmethoxy)carbonyl]amino]pentanoic acid, bis(trifluoroacetate)], the “Median Survival” value runs as follows: under setting [1], 14.0 days; under setting [2], 15.0 days; under setting [3], 16.5 days. Further, the “T/C × 100 (%)” value runs as follows: under setting [1], 117%; under setting [2], 125%; under setting [3], 138%.

With “[S-(R*,R*)][(9,10-Dihydro-5,8-dihydroxy-9,10-dioxo-1,4-anthracenediyl)bis[imino-2,1-ethanediylimino[1-[3-[[imino[[(phenylmethoxy)carbonyl]amino]methyl][(phenylmethoxy)carbonyl]propyl]-2-oxo-2,1-ethanediyl]]]carbamic acid, bis(phenylmethyl)ester [Example 95]”, the “Median Survival” value is, setting by setting: under setting [1], 14.0 days; under setting [2], 16.0 days; under setting [3], 16.0 days. In addition, the “T/C × 100 (%)” value reads like this: under setting [1], 127%; under setting [2], 145%; under setting [3], 145%.

As to `CC(C)(C)OC(=O)N[C@@H](COCc1ccccc1)C(=O)NCCNc1ccc(NCCNC(=O)[C@H](COCc2ccccc2)NC(=O)OC(C)(C)C)c2c1C(=O)c1c(O)ccc(O)c1C2=O` (relative stereo) [Example 41, S-(R*,R*)]-N,N'-[(9,10-Dihydro-5,8-dihydroxy-9,10-dioxo-1,4-anthracenediyl)bis[imino-2,1-ethanediylimino-[2-oxo-1-[(phenylmethoxy)methyl]-2,1-ethanediyl]]]biscarbamic acid, bis(1,1-dimethylethyl)ester], the “Median Survival” value is, setting by setting: under setting [1], 12.0 days; under setting [2], 13.5 days; under setting [3], 15.5 days. Also, the “T/C × 100 (%)” value is, setting by setting: under setting [1], 120%; under setting [2], 135%; under setting [3], 155%.

Take `CSCC[C@H](N)C(=O)NCCNc1ccc(NCCNC(=O)[C@@H](N)CCSC)c2c1C(=O)c1c(O)ccc(O)c1C2=O.Cl.Cl` (relative stereo) [Example 22, [S-(R*,R*)]N,N'(9,10-Dihydro-5,8-dihydroxy-9,10-dioxo-1,4-anthracenediyl)bis(imino-2,1-ethanediyl)]-bis[2-amino-4-(methylthio)butanamide], dihydrochloride]: the “Median Survival” value runs as follows: under setting [1], 17.0 days; under setting [2], 20.5 days; under setting [3], 25.5 days. Moreover, the “T/C × 100 (%)” value is, setting by setting: under setting [1], 170%; under setting [2], 205%; under setting [3], 255%.

`N[C@@H](CC(=O)O)C(=O)NCCNc1ccc(NCCNC(=O)[C@@H](N)CC(=O)O)c2c1C(=O)c1c(O)ccc(O)c1C2=O.O=C(O)C(F)(F)F.O=C(O)C(F)(F)F` (relative stereo) [Example 40, S-(R*,R*)]-4,4'-[(9,10-Dihydro-5,8-dihydroxy-9,10-dioxo-1,4-anthracenediyl)bis(imino-2,1-ethanediylimino)]bis[3amino-4-oxobutanoic acid]bis(trifluoroacetate)]: the “Median Survival” value under setting [1] is 23.0 days, the “Median Survival” value under setting [2] amounted to 19.5 days and the “Median Survival” value under setting [3] was found to be 23.0 days. The “T/C × 100 (%)” value under setting [1] was found to be 192%, the “T/C × 100 (%)” value under setting [2] came to 163% and the “T/C × 100 (%)” value under setting [3] was determined as 192%.

Consider `CC(C)(C)OC(=O)CC[C@H](NC(=O)OCc1ccccc1)C(=O)NCCNc1ccc(NCCNC(=O)[C@H](CCC(=O)OC(C)(C)C)NC(=O)OCc2ccccc2)c2c1C(=O)c1c(O)ccc(O)c1C2=O` (relative stereo) [Example 47, [S-(R*,R*)]-5,5'-[(9,10-Dihydro-5,8-dihydroxy-9,10-dioxo-1,4-anthracenediyl)bis(imino-2,1-ethanediylimino)]bis[5-oxo-4-[[(phenylmethoxy)carbonyl]amino]pentanoic acid], bis(1,1-dimethylethyl)ester], for which the “Median Survival” value runs as follows: under setting [1], 15.0 days; under setting [2], 17.0 days; under setting [3], 16.5 days. Besides, the “T/C × 100 (%)” value is, setting by setting: under setting [1], 136%; under setting [2], 155%; under setting [3], 150%.

Turning to `Br.Br.C[C@H](NC(=O)[C@@H]1CCCN1C(=O)CNC(=O)CNC(=O)[C@@H]1CCCN1C(=O)CN)C(=O)NCCNc1ccc(NCCNC(=O)[C@H](C)NC(=O)[C@@H]2CCCN2C(=O)CNC(=O)CNC(=O)[C@@H]2CCCN2C(=O)CN)c2c1C(=O)c1c(O)ccc(O)c1C2=O` [Example 64, N,N'-[(9,10-Dihydro-5,8-dihydroxy-9,10-dioxo-1,4-anthracenediyl)bis(imino-2,1-ethanediyl)]bis[glycyl-L-prolylglycylglycyl-L-prolyl-L-alaninamide]-dihydrobromide] (I: H-GPGGPA / II: H-GPGGPA; linker I:C-II:C via X1), the response vs control in vivo at 0.75 mg/kg came out at 195%, the response vs control in vivo at 1.5 mg/kg amounted to 205% and the response vs control in vivo at 3 mg/kg was determined as 255%. In addition, the “Median Survival” value under setting [1] turned out to be 19.5 days. The “Median Survival” value under setting [2] turned out to be 20.5 days. Moreover, under setting [3], the “Median Survival” value turned out to be 25.5 days.

Turning to “N,N'-[(9,10-Dihydro-5,8-dihydroxy-9,10-oxo-1,4-anthracenediyl)bis(imino-2,1-ethanediyl) ]bis[L-arginine(phenylmethyl)]ester, dihydrobromide [Example 85]”, the “Median Survival” value by setting is: under setting [1], 21.5 days; under setting [2], 21.0 days; under setting [3], 22.5 days. For the same molecule, the “T/C × 100 (%)” value was 179% under setting [1], 175% under setting [2] and 188% under setting [3].

For the molecule `CC(C)C[C@H](NC(=O)[C@H](C)NC(=O)[C@H](C)NC(=O)OC(C)(C)C)C(=O)NCCNc1ccc(NCCNC(=O)[C@H](CC(C)C)NC(=O)[C@H](C)NC(=O)[C@H](C)NC(=O)OC(C)(C)C)c2c1C(=O)c1c(O)ccc(O)c1C2=O` [Example 67, N,N'-[(9,10-Dihydro-5,8-dihydroxy-9,10-dioxo-1,4-anthracenediyl)bis(imino-2,1-ethanediyl)]bis[N-[(1,1-dimethylethoxy)carbonyl]-L-alanyl-L-alanyl-L-leucinamide]], the response vs control in vivo at 0.75 mg/kg stood at 155%, the response vs control in vivo at 1.5 mg/kg was 165% and the response vs control in vivo at 3 mg/kg turned out to be 160%. In addition, under setting [1], the “Median Survival” value was 15.5 days. In addition, the “Median Survival” value under setting [2] stood at 16.5 days. For the same molecule, the “Median Survival” value under setting [3] was 16.0 days.

With `Br.Br.CC(C)C[C@H](NC(=O)[C@@H]1CCCN1C(=O)CN)C(=O)NCC(=O)N1CCC[C@H]1C(=O)NCCNc1ccc(NCCNC(=O)[C@@H]2CCCN2C(=O)CNC(=O)[C@H](CC(C)C)NC(=O)[C@@H]2CCCN2C(=O)CN)c2c1C(=O)c1c(O)ccc(O)c1C2=O` [Example 62, N,N'-[(9,10-Dihydro-5,8-dihydroxy-9,10-dioxo-1,4-anthracenediyl)bis(imino-2,1-ethanediyl)]bis[glycyl-L-prolyl-L-leucylglycyl-L-prolinamide]dihydrobromide], the “Median Survival” value under setting [1] was 19.0 days, the “Median Survival” value under setting [2] stood at 22.0 days and the “Median Survival” value under setting [3] turned out to be 24.5 days. Moreover, the “T/C × 100 (%)” value under setting [1] was found to be 190%, the “T/C × 100 (%)” value under setting [2] was determined as 220% and the “T/C × 100 (%)” value under setting [3] was 245%.

Consider `CC(C)C[C@H](N)C(=O)NCCNc1ccc(NCCNC(=O)[C@@H](N)CC(C)C)c2c1C(=O)c1c(O)ccc(O)c1C2=O.Cl.Cl` (stereo in doubt) [Example 18, [S-(R*,R*)]-N,N'-[(9,10-Dihydro-5,8-dihydroxy-9,10-dioxo-1,4-anthracenediyl)bis(imino-2,1-ethanediyl)]bis-[-amino-4-methylpentanamide], dihydrochloride], for which the “Median Survival” value by setting is: under setting [1], 25.5 days; under setting [2], 26.0 days; under setting [3], 18.0 days. The “T/C × 100 (%)” value by setting is: under setting [1], 213%; under setting [2], 217%; under setting [3], 150%.

As for `Br.Br.C[C@H](N)C(=O)N[C@@H](C)C(=O)N[C@@H](CCCNC(=N)N)C(=O)NCCNc1ccc(NCCNC(=O)[C@H](CCCNC(=N)N)NC(=O)[C@H](C)NC(=O)[C@H](C)N)c2c1C(=O)c1c(O)ccc(O)c1C2=O.O=C(O)C(F)(F)F.O=C(O)C(F)(F)F` [Example 90, N,N'-[(9,10-Dihydro-5,8-dihydroxy-9,10-dioxo-1,4-anthracenediyl)bis(imino-2,1-ethanediyl)]bis[L-alanyl-L-alanyl-L-argininamide], dihydrobromide, bis(trifluoroacetate)], the “Median Survival” value is, setting by setting: under setting [1], 23.5 days; under setting [2], 23.5 days; under setting [3], 19.5 days. The “T/C × 100 (%)” value runs as follows: under setting [1], 214%; under setting [2], 214%; under setting [3], 177%.
